Measured values as given in patent US20240366629A1, “Porphyrin Complexes as Antidotes for Carbon Monoxide Exposure and Methods of Use for Same” (priority 2021, published 2024).

How the values were obtained:
[1] = Solubility in water and methanol
CO-treated RBCs = test: Time-course CO removal from CO-treated RBCs (absorbance at 420 nm); type: cell-based, bovine; settings: quiescent suspension of CO-poisoned RBCs in buffered dithionite solution, 1 equiv of 6 (reduced in situ to 7)
Experimental: Time-Course CO Removal From CO-Treated RBCs Defibrinated bovine blood (Hemostat Laboratories) was diluted with PBS containing 5.7 mM sodium dithionite. CO was bubbled through this suspension for 5 s. This mixture was centrifuged for 30 s at 760×g. The supernatant was discarded, and the pellet was washed with PBS containing 5.7 mM sodium dithionite. This washing was repeated three more times to remove excess CO. An aliquot of the stock suspension of CO-treated RBCs was added to a quartz cuvette containing 1 mL of DI water to lyse the cells. The concentration of COHb was assessed by measuring the absorbance at 420 nm (ε=10^5.63) of this lysate. For time-course CO removal, an aliquot of the stock suspension of CO-treated RBCs was diluted to 1 mL with PBS containing 5.7 mM sodium dithionite. A full equivalent of compound 6 (which is reduced in situ to 7) was added, the suspension was rapidly mixed, and absorbance at 420 nm was monitored continuously (FIG. 12).

Compound: 5,10,15,20-tetrakis(2,6-di(3,5-difluoro)phenyl-4-(trimethylsilyl) phenyl) porphyrin [Compound 2-2b]
- solubility in water and methanol [1]: completely insoluble

Compound: C[Si](C)(C)c1cc(-c2ccccc2)c(-c2c3nc(c(-c4c(-c5ccccc5)cc([Si](C)(C)C)cc4-c4ccccc4)c4ccc([nH]4)c(-c4c(-c5ccccc5)cc([Si](C)(C)C)cc4-c4ccccc4)c4nc(c(-c5c(-c6ccccc6)cc([Si](C)(C)C)cc5-c5ccccc5)c5ccc2[nH]5)C=C4)C=C3)c(-c2ccccc2)c1 [Compound 2-2a, 5,10,15,20-tetrakis(2,6-diphenyl-4-(trimethylsilyl)phenyl) porphyrin]
- solubility in water and methanol [1]: completely insoluble

Compound: O=S(=O)([O-])c1cc(-c2ccccc2)c(-c2c3nc(c(-c4c(-c5ccccc5)cc(S(=O)(=O)[O-])cc4-c4ccccc4)c4ccc([nH]4)c(-c4c(-c5ccccc5)cc(S(=O)(=O)[O-])cc4-c4ccccc4)c4nc(c(-c5c(-c6ccccc6)cc(S(=O)(=O)[O-])cc5-c5ccccc5)c5ccc2[nH]5)C=C4)C=C3)c(-c2ccccc2)c1.[Na+].[Na+].[Na+].[Na+] [Compound 2-3a, sodium 5,10,15,20-tetrakis(2,6-diphenyl-4-(sulfonato)phenyl)porphyrin]
- solubility in water and methanol [1]: readily dissolved

Compound: O=S(=O)([O-])c1cc(-c2cc(F)cc(F)c2)c(-c2c3nc(c(-c4c(-c5cc(F)cc(F)c5)cc(S(=O)(=O)[O-])cc4-c4cc(F)cc(F)c4)c4ccc([nH]4)c(-c4c(-c5cc(F)cc(F)c5)cc(S(=O)(=O)[O-])cc4-c4cc(F)cc(F)c4)c4nc(c(-c5c(-c6cc(F)cc(F)c6)cc(S(=O)(=O)[O-])cc5-c5cc(F)cc(F)c5)c5ccc2[nH]5)C=C4)C=C3)c(-c2cc(F)cc(F)c2)c1.[Na+].[Na+].[Na+].[Na+] [Compound 2-3b, sodium 5,10,15,20-tetrakis(2,6-di(3,5-difluoro)phenyl-4-(sulfonato)phenyl)porphyrin]
- solubility in water and methanol [1]: readily dissolved

Compound: Sodium 5,10,15,20-tetrakis(2,6-diphenyl-4-(sulfonate)phenyl)porphyrinatohydroxoiron(III) [Compound 6]
- time to essentially complete reaction (decrease of COHb absorbance at 420 nm) (CO-treated RBCs): ≤ 3 min
